Literature values in patent publication US20050142187A1, “Enhanced absorption of modified release dosage forms” (priority 2003, published 2005).

- Window of absorption (known in the art, "or less"): 3 to 4 h
Structure (SMILES): CC1(C)S[C@@H]2[C@H](NC(=O)[C@H](N)c3ccc(O)cc3)C(=O)N2[C@H]1C(=O)O [Amoxicillin, amoxicillin]
- Food effect (current scientific literature): either a negligible or a negative food effect
